Legend:
[1] = biological target: T1, indoleamine 2,3-dioxygenases 2 (IDO2) (Homo sapiens, UniProt Q6ZQW0); assay: Universal IDO1/IDO2/TDO Inhibitor Screening Assay Kit, IDO2; type: biochemical; settings: read-out: Inhibition (%) IDO2
T1 construct: purchased BPS Bioscience, Inc. (San Diego, CA, USA)
T1 sequence (Q6ZQW0 1-407): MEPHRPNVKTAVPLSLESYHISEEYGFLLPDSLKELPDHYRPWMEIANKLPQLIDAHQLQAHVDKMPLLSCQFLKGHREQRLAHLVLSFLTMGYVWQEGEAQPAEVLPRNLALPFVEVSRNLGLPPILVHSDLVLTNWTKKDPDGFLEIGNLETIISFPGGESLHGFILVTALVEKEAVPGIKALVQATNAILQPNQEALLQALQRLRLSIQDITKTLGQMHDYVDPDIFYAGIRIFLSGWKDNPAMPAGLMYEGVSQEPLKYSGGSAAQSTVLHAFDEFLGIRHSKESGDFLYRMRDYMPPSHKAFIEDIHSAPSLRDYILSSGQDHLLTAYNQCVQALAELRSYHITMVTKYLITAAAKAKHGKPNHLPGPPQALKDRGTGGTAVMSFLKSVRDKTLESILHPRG
Experimental: (§1) This colorimetric assay is based on the measurement of the ability of IDO1, IDO2 and TDO to convert L-tryptophan into N-formylkynurenine (NFK). The experiments were performed according to the manufacturer’s guidelines. The final concentration of the compounds and extracts in the reaction mixture was 100 µg/mL. The amount of NFK was measured spectrophotometrically at 320 nm using an Epoch BioTek microplate reader (BioTek Instruments, Inc., Winooski, VT, USA). The samples were run in triplicate and the results were expressed as mean ± SEM.

[2] = biological target: T2, tryptophan 2,3-dioxygenase (TDO) (Homo sapiens, UniProt P48775); assay: Universal IDO1/IDO2/TDO Inhibitor Screening Assay Kit, TDO; type: biochemical; settings: read-out: Inhibition (%) TDO
T2 construct: purchased BPS Bioscience, Inc. (San Diego, CA, USA)
Experimental: as §1

T2 sequence (P48775 whole entry, species assumed): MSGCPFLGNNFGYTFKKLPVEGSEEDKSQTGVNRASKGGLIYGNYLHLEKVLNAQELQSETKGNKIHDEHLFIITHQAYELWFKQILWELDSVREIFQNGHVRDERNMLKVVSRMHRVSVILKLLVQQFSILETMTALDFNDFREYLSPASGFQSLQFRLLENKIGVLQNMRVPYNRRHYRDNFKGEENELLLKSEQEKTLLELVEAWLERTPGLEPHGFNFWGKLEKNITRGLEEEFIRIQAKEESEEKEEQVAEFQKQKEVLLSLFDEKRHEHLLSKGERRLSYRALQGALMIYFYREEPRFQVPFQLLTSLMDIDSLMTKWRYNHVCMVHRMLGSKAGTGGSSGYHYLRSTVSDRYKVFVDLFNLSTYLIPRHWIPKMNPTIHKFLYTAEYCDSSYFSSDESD

NS(=O)(=O)NCCNc1nonc1C(=NO)Nc1ccc(F)c(Br)c1 [epacadostat, reference compound]
inhibition at 100 µg/mL [1]: < 10%
inhibition at 100 µg/mL [2]: < 10%
